Assay results taken from patent US20110201603A1, “Novel Acylaminobenzamide Derivatives” (Bayer CropScience AG, priority 2008, published 2011).

What was measured:
Assay type in all cases: in vivo
Lucilia cuprina larvae = assay: Lucilia cuprina test; details: application rate of 100 ppm; larvae on minced horse meat; after 2 days
Description: (§1) Solvent: dimethyl sulfoxide
To produce a suitable preparation of active compound, 10 mg of active compound are dissolved in 0.5 ml solvent, and the concentrate is diluted with water to the desired concentration. Approximately 20-30 (Lucilia cuprina larvae) are transferred into a test tube containing 1 cm^3 of minced horse meat and 0.5 ml aqueous dilution of test compound. After 2 days mortality in % is determined. 100% means that all the larvae have been killed; 0% means that none of the larvae have been killed.

[1] = tested on: tobacco cutworm (Spodoptera litura) larvae; assay: Test against tobacco cutworm (Spodoptera litura) larvae, leaf dip; details: active compound concentration of 100 ppm; third-instar larvae on sweet potato leaves; after 7 days
Description: (§2) Unless not mentioned otherwise, the test solutions were prepared as follows:
(§3) Containing as solvent: Dimethylformamide, 3 parts by weight; and as emulsifier: Polyoxyethylene alkyl phenyl ether, 1 part by weight
(§4) To prepare the test solution, 1 part by weight of an active compound is mixed with the above-mentioned amount of solvent containing the above-mentioned amount of emulsifier, and the mixture is diluted with water to the desired concentration.
The leaves of sweet potato were immersed in the test solution at the appropriate concentration, and the leaves were dried in air. The leaves were then placed in a petri dish having a diameter of 9 cm, and ten third-instar larvae of tobacco cutworm were released therein. The petri dish was placed in a temperature-controlled chamber at 25° C. After 2 days and 4 days sweet potato leaves were additionally added. After 7 days, the number of dead larvae was counted to calculate the insecticidal activity. An insecticidal activity of 100% means that all larvae were killed, whereas an insecticidal activity of 0% means that no larva was killed. In the current test, the results of two petri dishes for each partition were averaged.

[2] = tested on: two-spotted spider mite (Tetranychus urticae); assay: Test against two-spotted spider mite (Tetranychus urticae), spray; details: concentration of 100 ppm; adult mites on kidney beans; after 7 days
Description: as §2, §3, §4
50 to 100 adult two-spotted spider mites were inoculated onto the leaves of kidney beans at the two-true leaf stage, which plant had been cultivated in a pot having a diameter of 6 cm. After one day, test solution at the appropriate concentration was sprayed thereon in a sufficient amount using a spray gun. After the spraying, the plant pot was placed inside a greenhouse, and after 7 days, the acaricidal activity was calculated. An acaricidal activity of 100% means that all mites were killed, whereas an acaricidal activity of 0% means that no mite was killed.

[3] = tested on: cucurbit leaf beetle (Aulacophora femoralis); assay: Test against cucurbit leaf beetle (Aulacophora femoralis), leaf dip; details: active compound concentration of 100 ppm; second-instar larvae on cucumber leaves; after 7 days
Description: as §2, §3, §4
Cucumber leaves were immersed in the test solution at the appropriate concentration, and the leaves were dried in air. The leaves were then placed in a plastic cup containing sterilized black soil, and five second-instar larvae of cucurbit leaf beetle were released therein. The plastic cup was placed in a temperature-controlled chamber at 25° C. After 7 days, the number of dead larvae was counted, and thus the insecticidal activity was calculated. An insecticidal activity of 100% means that all beetles were killed, whereas an insecticidal activity of 0% means that no beetle was killed.

Musca domestica = Musca domestica test; details: application rate of 100 ppm; adults, sugar sponge; after 2 days
Description: as §1
To produce a suitable preparation of active compound, 10 mg of active compound are dissolved in 0.5 ml solvent, and the concentrate is diluted with water to the desired concentration. Prior to the assay, a piece or kitchen sponge is soaked with a mixture of sugar and compound solution and placed into a container. 10 adults (Musca domestica) are placed into the container and closed with a perforated lid. After 2 days mortality in % is determined. 100% means that all the flies have been killed; 0% means that none of the flies have been killed.

Ctenocephalides felis = Ctenocephalides felis test (CTECFE), blood feeding; details: application rate of 100 ppm in cattle blood; adult unfed fleas; after 2 days
Description: as §1
To produce a suitable preparation of active compound, 10 mg of active compound are dissolved in 0.5 ml solvent, and the concentrate is diluted with cattle blood to the desired concentration.
Approximately 10 to 15 adult unfed (Ctenocepahlides felis) are placed in flea chambers. The blood chamber, are sealed with paraffin on the bottom are filled with cattle blood supplied with compound solution and placed on top of the flea chamber, so that the fleas are able to suck the blood. The blood chamber is heated to 37° C. whereas the flea chamber is kept at room temperature. After 2 days mortality in % is determined. 100% means that all the fleas have been killed; 0% means that none of the fleas have been killed.

| Structure (SMILES) | activity (mortality in %) (Lucilia cuprina larvae) | insecticidal activity [1] | acaricidal activity rate [2] | insecticidal activity [3] | activity (mortality in %) (Musca domestica) | activity (mortality in %) (Ctenocephalides felis) |
| --- | --- | --- | --- | --- | --- | --- |
| Cc1cc(C(n2nc(C(F)(F)F)cc2C(F)(F)F)(C(F)(F)F)C(F)(F)F)cc(C)c1NC(=O)c1cccc(NC(=O)c2ccccc2F)c1 [2-124] | 90% | 100% | – | – | – | – |
| Cc1cc(C(N=[N+]=[N-])(C(F)(F)F)C(F)(F)F)cc(C)c1NC(=O)c1cccc(NC(=O)c2cccnc2Cl)c1 [2-145] | – | 100% | 100% | 100% | – | – |
| CCOC(c1cc(I)c(NC(=O)c2cccc(NC(=O)c3ccccc3F)c2)c(I)c1)(C(F)(F)F)C(F)(F)F [1-26] | – | 100% | – | 100% | 90% | 100% |
| Cc1cc(C(n2cc(C(F)(F)F)cn2)(C(F)(F)F)C(F)(F)F)cc(C)c1NC(=O)c1cccc(NC(=O)c2cccnc2Cl)c1 [2-109] | – | 100% | – | 100% | – | 100% |
| CC(c1cc(Br)c(NC(=O)c2cccc(NC(=O)c3cccnc3Cl)c2)c(Br)c1)(n1cc(Br)cn1)C(F)(F)F (stereo not drawn) [2-83] | – | 100% | 100% | 100% | – | – |
| CCOC(c1cc(I)c(NC(=O)c2cccc(NC(=O)c3cccnc3Cl)c2)c(I)c1)(C(F)(F)F)C(F)(F)F [1-40] | – | 100% | 100% | 100% | 100% | 90% |
| CCc1cc(C(n2cccc2)(C(F)(F)F)C(F)(F)F)cc(C)c1NC(=O)c1cccc(NC(=O)c2cccnc2Cl)c1 [2-1] | – | 100% | 100% | 100% | – | – |
| CCOC(c1cc(I)c(NC(=O)c2cccc(NC(=O)c3cccc(F)c3)c2)c(I)c1)(C(F)(F)F)C(F)(F)F [1-27] | – | 100% | 100% | 100% | 80% | 90% |
| Cc1cc(C(n2cc(C(F)(F)F)cn2)(C(F)(F)F)C(F)(F)F)cc(C)c1NC(=O)c1cccc(NC(=O)c2cccnc2F)c1 [2-108] | – | 100% | – | 100% | – | 100% |
| CCCOC(c1cc(I)c(NC(=O)c2cccc(NC(=O)c3ccc(Cl)nc3Cl)c2)c(I)c1)(C(F)(F)F)C(F)(F)F [1-64] | – | – | 100% | – | – | – |
| Cc1cc(C(n2cc(Cl)cn2)(C(F)(F)F)C(F)(F)F)cc(C)c1NC(=O)c1cccc(NC(=O)c2cccnc2Cl)c1 [2-51] | – | 100% | 100% | – | – | 100% |
| CCc1cc(C(n2cc(Cl)cn2)(C(F)(F)F)C(F)(F)F)cc(C)c1NC(=O)c1cccc(NC(=O)c2cccnc2)c1 [2-42] | – | – | 100% | – | – | – |
| O=C(Nc1c(Br)cc(C(CF)(n2cc(Cl)cn2)C(F)(F)F)cc1Br)c1cccc(NC(=O)c2cccnc2Cl)c1 (stereo not drawn) [2-24] | – | 100% | 100% | 100% | – | – |
| C#CCOC(c1cc(I)c(NC(=O)c2cccc(NC(=O)c3cccnc3Cl)c2)c(I)c1)(C(F)(F)F)C(F)(F)F [1-80] | – | 100% | – | – | 100% | 80% |
| CCc1cc(C(C#N)(C(F)(F)F)C(F)(F)F)cc(C)c1NC(=O)c1cccc(NC(=O)c2cccnc2Cl)c1 [4-5] | – | 100% | 100% | 100% | – | – |
| CCc1cc(C(Oc2ccc(Cl)cc2)(C(F)(F)F)C(F)(F)F)cc(C)c1NC(=O)c1cccc(NC(=O)c2cccnc2Cl)c1 [1-109] | – | 100% | 100% | 100% | – | – |

| Structure (SMILES) | activity (mortality in %) (Lucilia cuprina larvae) | insecticidal activity [1] | acaricidal activity rate [2] | insecticidal activity [3] | activity (mortality in %) (Musca domestica) | activity (mortality in %) (Ctenocephalides felis) |
| --- | --- | --- | --- | --- | --- | --- |
| CCOC(c1cc(I)c(NC(=O)c2cccc(NC(=O)c3cccnc3F)c2)c(I)c1)(C(F)(F)F)C(F)(F)F [1-59] | – | 100% | – | 100% | 100% | 95% |
| CCc1cc(C(n2cc(Cl)cn2)(C(F)(F)F)C(F)(F)F)cc(C)c1NC(=O)c1cccc(NC(=O)c2cccnc2Cl)c1 [2-55] | – | 100% | 100% | 100% | – | – |
| CCc1cc(C(n2cc(Br)cn2)C(F)(F)F)cc(C)c1NC(=O)c1cccc(NC(=O)c2cccnc2Cl)c1 (stereo not drawn) [2-77] | – | 100% | – | – | – | 90% |
| CCOC(c1cc(I)c(NC(=O)c2cccc(NC(=O)c3ccccc3)c2)c(I)c1)(C(F)(F)F)C(F)(F)F [1-25] | – | 100% | – | 100% | 80% | 90% |
| Cc1cc(C(n2cncn2)(C(F)(F)F)C(F)(F)F)cc(Br)c1NC(=O)c1cccc(NC(=O)c2ccccc2F)c1 [2-151] | – | – | – | – | – | 90% |
| CCOC(c1cc(I)c(NC(=O)c2cccc(NC(=O)c3ccc(Cl)nc3Cl)c2)c(I)c1)(C(F)(F)F)C(F)(F)F [1-61] | – | – | 100% | 100% | – | – |
| CCOC(=O)Nc1cccc(C(=O)Nc2c(I)cc(C(OCC)(C(F)(F)F)C(F)(F)F)cc2I)c1 [1-24] | – | 100% | – | – | 90% | – |
| Cc1cc(C(n2cc(C(F)(F)F)cn2)C(F)(F)F)cc(C)c1NC(=O)c1cccc(NC(=O)c2cccnc2F)c1 (stereo not drawn) [2-103] | – | 100% | – | 100% | – | 95% |
| CCc1cc(C(OCC2CC2)(C(F)(F)F)C(F)(F)F)cc(C)c1NC(=O)c1cccc(NC(=O)c2cccnc2Cl)c1 [1-66] | – | 100% | 100% | 100% | – | – |
| CCOC(c1cc(I)c(NC(=O)c2cccc(NC(=O)c3ccc(F)cc3)c2)c(I)c1)(C(F)(F)F)C(F)(F)F [1-28] | – | 100% | 100% | 100% | – | – |
| CC(c1cc(Br)c(NC(=O)c2cccc(NC(=O)c3cccnc3F)c2)c(Br)c1)(n1cc(Br)cn1)C(F)(F)F (stereo not drawn) [2-82] | – | 100% | 100% | 100% | – | – |
| Cc1cc(C(n2cc(F)cn2)(C(F)(F)F)C(F)(F)F)cc(C)c1NC(=O)c1cccc(NC(=O)c2cccnc2Cl)c1 [2-6] | – | 100% | 100% | 100% | – | – |
| Cc1cc(C(n2cncn2)(C(F)(F)F)C(F)(F)F)cc(C)c1NC(=O)c1cccc(NC(=O)c2cccnc2Cl)c1 [2-148] | – | – | – | – | – | 95% |
| Cc1cc(C(n2cc(Br)cn2)(C(F)(F)F)C(F)(F)F)cc(C)c1NC(=O)c1cccc(NC(=O)c2cccnc2Cl)c1 [2-84] | – | 100% | 100% | – | – | 95% |
| O=C(Nc1c(Br)cc(C(n2cc(Cl)cn2)(C(F)(F)F)C(F)(F)F)cc1Br)c1cccc(NC(=O)c2cccnc2Cl)c1 [2-62] | – | 100% | 100% | 100% | – | – |
| CCOC(c1cc(I)c(NC(=O)c2cccc(NC(=O)c3ccc(Cl)nc3)c2)c(I)c1)(C(F)(F)F)C(F)(F)F [1-60] | – | 100% | 100% | 100% | 100% | 100% |
